Measurements published in ChEMBL document CHEMBL2046268 (Eur J Med Chem, 2012).
Activity calls are given as the source filed them. The rule behind the calls is not given here.

Assays:
[1] = test system: Vero; experiment: Selectivity index, ratio of IC50 for african green monkey Vero cells to IC50 for human MCF7 cells after 48 hrs
[2] = test system: A549; experiment: Cytotoxicity against human A549 cells assessed as cell viability after 72 hrs by MTT assay; assay type: functional, cell-based; settings: A549, 72 h
[3] = test system: HeLa; experiment: Cytotoxicity against human HeLa cells assessed as cell viability after 72 hrs by MTT assay; assay type: functional, cell-based
[4] = test system: HeLa; experiment: Cytotoxicity against human HeLa cells assessed as cell viability after 48 hrs by MTT assay; assay type: functional, cell-based
[5] = test system: Vero; experiment: Cytotoxicity against african green monkey Vero cells assessed as cell viability after 72 hrs by MTT assay; assay type: cell-based; settings: Chlorocebus sabaeus
[6] = test system: Vero; experiment: Cytotoxicity against african green monkey Vero cells assessed as cell viability after 48 hrs by MTT assay; assay type: cell-based; settings: Chlorocebus sabaeus
[7] = test system: A549; experiment: Cytotoxicity against human A549 cells assessed as cell viability after 48 hrs by MTT assay; assay type: functional, cell-based; settings: A549, 48 h
[8] = test system: MCF7; experiment: Cytotoxicity against human MCF7 cells assessed as cell viability after 72 hrs by MTT assay; assay type: functional, cell-based; settings: MCF7, 72 h
[9] = test system: MCF7; experiment: Cytotoxicity against human MCF7 cells assessed as cell viability after 48 hrs by MTT assay; assay type: functional, cell-based; settings: MCF7, 48 h
[10] = test system: HeLa; experiment: Induction of apoptosis in human HeLa cells assessed as formation of apoptotic bodies at 8 uM after 12 hrs using Hoechst 33342 staining by fluorescence microscopic analysis; assay type: functional, cell-based
[11] = test system: HeLa; experiment: Induction of apoptosis in human HeLa cells assessed as DNA fragmentation at 16 to 32 uM after 24 hrs by agarose gel electrophoresis; assay type: functional, cell-based
[12] = molecular target: T1, Caspase-3 (Homo sapiens) (UniProt P42574); experiment: Induction of caspase 3 activation in human HeLa cells using Ac-DEVD-pNA at 4 uM after 4 hrs by Bradford assay; assay type: cell-based
T1 sequence (whole entry): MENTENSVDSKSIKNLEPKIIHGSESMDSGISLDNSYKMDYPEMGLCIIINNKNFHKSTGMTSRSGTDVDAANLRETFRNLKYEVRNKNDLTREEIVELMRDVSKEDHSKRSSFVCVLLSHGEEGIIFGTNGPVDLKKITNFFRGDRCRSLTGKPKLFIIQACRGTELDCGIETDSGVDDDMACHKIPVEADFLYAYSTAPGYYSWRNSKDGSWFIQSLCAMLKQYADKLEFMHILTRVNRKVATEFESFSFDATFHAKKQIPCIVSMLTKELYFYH

[13] = test system: HeLa; experiment: Induction of apoptosis in human HeLa cells assessed as early apoptotic cells at 2 to 4 uM up to 4 hrs using annexin/PI staining by fluorescence microscopy; assay type: functional, cell-based
[14] = molecular target: T1, Caspase-3 (Homo sapiens); experiment: Induction of caspase 3 activation in human HeLa cells using Ac-DEVD-pNA at 8 uM after 4 hrs by Bradford assay; assay type: cell-based
[15] = test system: HeLa; experiment: Induction of apoptosis in human HeLa cells assessed as phosphatidylserine externalization at 2 to 16 uM using annexin/PI staining by fluorescence microscopy; assay type: functional, cell-based; settings: TDE = time-dependent effect
[16] = test system: HeLa; experiment: Induction of apoptosis in human HeLa cells assessed as necrotic cells at 2 to 16 uM using annexin/PI staining by fluorescence microscopy; assay type: functional, cell-based; settings: TDE = time-dependent effect
[17] = test system: HeLa; experiment: Induction of apoptosis in human HeLa cells assessed as DNA fragmentation at 4 to 32 uM after 12 hrs by agarose gel electrophoresis; assay type: functional, cell-based
[18] = test system: HeLa; experiment: Induction of apoptosis in human HeLa cells assessed as DNA fragmentation at 16 uM after 48 hrs by agarose gel electrophoresis; assay type: functional, cell-based
[19] = test system: HeLa; experiment: Induction of apoptosis in human HeLa cells assessed as necrotic cells after 0.5 to 4 hrs using annexin/PI staining by fluorescence microscopy; assay type: functional, cell-based
[20] = test system: HeLa; experiment: Induction of apoptosis in human HeLa cells assessed as phosphatidylserine externalization after 0.5 to 4 hrs using annexin/PI staining by fluorescence microscopy; assay type: functional, cell-based
[21] = test system: HeLa; experiment: Induction of apoptosis in human HeLa cells assessed as increase in sub-G1 DNA content at 24 uM after 12 hrs using Propidium iodide staining by flow cytometry; assay type: functional, cell-based
[22] = molecular target: T1, Caspase-3 (Homo sapiens); experiment: Induction of caspase 3 activation in human HeLa cells using Ac-DEVD-pNA after 4 hrs by Bradford assay; assay type: cell-based
[23] = test system: HeLa; experiment: Induction of apoptosis in human HeLa cells assessed as chromatin condensation at 8 uM after 12 hrs using Hoechst 33342 staining by fluorescence microscopic analysis; assay type: functional, cell-based

SMILES | Ratio IC50 [1] | IC50 [2] [µM] | IC50 [3] [µM] | IC50 [4] [µM] | IC50 [5] [µM] | IC50 [6] [µM] | IC50 [7] [µM] | IC50 [8] [µM] | IC50 [9] [µM] | other results
CC1=C(CO)C(=O)O[C@@H]([C@@H](C)[C@H]2CC[C@H]3[C@@H]4C[C@H](Cl)[C@]5(O)[C@@H](O)C=CC(=O)[C@]5(C)[C@H]4CC[C@]23C)C1 | 2 | 8.6 | 12.1 | 13.4 | 7.8 | 14.8 | 14.7 | 1.3 | 7.5 | 
CC(=O)OCC1=C(C)C[C@H]([C@@H](C)[C@H]2CC[C@H]3[C@@H]4C[C@H]5O[C@]56[C@@H](O)[C@@H](O)CC(=O)[C@]6(C)[C@H]4CC[C@]23C)OC1=O | <1 | 21.3 | 8.3 | 8.9 | 4.9 | 8.6 | 18.4 | 7.1 | 9.2 | 
CC1=C(CO)C(=O)O[C@@H]([C@@H](C)[C@H]2CC[C@H]3[C@@H]4C[C@H]5O[C@]56C(=O)C=CC(=O)[C@]6(C)[C@H]4CC[C@]23C)C1 | 2.4 | 12.8 | 15.2 | 18.4 | 1.5 | 7.7 | 25.4 | 2.1 | 3.2 | 
CC1=C(CO)C(=O)O[C@@H]([C@@H](C)[C@H]2CC[C@H]3[C@@H]4C[C@@H](O)[C@]5(C=O)CCC(=O)[C@]5(C)[C@H]4CC[C@]23C)C1 |  | > 40 | > 40 | > 40 | > 40 | > 40 | > 40 | > 40 | > 40 | 
CC1=C(CO)C(=O)O[C@@H]([C@@H](C)[C@H]2CC[C@H]3[C@@H]4C[C@H]5O[C@]56[C@@H](O)CCC(=O)[C@]6(C)[C@H]4CC[C@]23C)C1 | 1.1 | 17.2 | 19.3 | 28.9 | 9 | 15.5 | 33.5 | 5.4 | 14.4 | 
CC1=C(C)C(=O)O[C@@H]([C@@H](C)C2=CC[C@H]3[C@@H]4C[C@H]5O[C@]56[C@@H](O)C=CC(=O)[C@]6(C)[C@H]4CC[C@]23C)C1 | <1 | 5.5 | 8 | 21.5 | 3.1 | 4.7 | 40 | 2.2 | 12.6 | 
CC1=C(CO)C(=O)O[C@@H]([C@@H](C)[C@H]2CC[C@H]3[C@@H]4C[C@H](O)[C@]5(O)[C@@H](O)C=CC(=O)[C@]5(C)[C@H]4CC[C@]23C)C1 | 1 | 36.4 | 31.4 | > 40 | 26.9 | 40 | > 40 | 36.2 | 38.4 | 
CC1=C(C)C(=O)O[C@@H]([C@@H](C)[C@H]2CC[C@H]3[C@@H]4C[C@H]5O[C@]56[C@@H](O)C=CC(=O)[C@]6(C)[C@H]4CC[C@]23C)C1 | <1 | 1.5 | 3.4 | 4.6 | 2.2 | 1.5 | 9 | 1.1 | 6.6 | Activity [10]: Active; Activity [11]: inactive; Activity [12]: inactive; Activity [13]: Active; Activity [14]: inactive; Activity [15]: tde; Activity [16]: tde; Activity [17]: inactive; Activity [18]: inactive; Activity [19]: Dose-dependent effect; Activity [20]: Dose-dependent effect; Activity [21]: Active; Activity [22]: Dose-dependent effect; Activity [23]: Active
CC1=C(CO)C(=O)O[C@@H]([C@@H](C)[C@@]2(O)CC[C@H]3[C@@H]4C[C@H]5O[C@]56[C@@H](O)C=CC(=O)[C@]6(C)[C@H]4CC[C@@]32C)C1 | 1.8 | 31.7 | 19.8 | 17.7 | 21.8 | 28.8 | > 40 | 10.3 | 16.3 | 
